A word on the IC50: it is the point on the concentration scale where inhibition reaches its midpoint. Read a high IC50 as weaker potency in that assay.

The record followed here is ChEMBL document CHEMBL1133310, “Naphthalene carboxamides as inhibitors of human cytomegalovirus DNA polymerase” (Bioorg Med Chem Lett, 2000).

One experiment deals with HFF. In words: Antiviral activity in a cell-based plaque reduction assay, using an HFF cell line and the Davis strain of HCMV. Particulars: Homo sapiens. The experiment is classed as functional.
With `O=C(NCc1ccc(Cl)cc1)c1cc2cccc(O)c2cc1O`, the half-inhibitory concentration (IC50) came out at 600 nM. This lies in the sub-micromolar range.
The same measure, in the same setting: as for `COc1ccc2cc(O)c(C(=O)NCc3ccc([N+](=O)[O-])cc3)cc2c1`, the figure is 3700 nM; as for `O=C(NCc1ccc(Cl)cc1)c1cc2cc(O)ccc2cc1O`, 1000 nM; as for `O=C(NCc1ccc(Cl)cc1)c1ccc2ccccc2c1O`, more than 20000 nM.
The same measure, in the same setting: as for `COc1ccc2cc(O)c(C(=O)Nc3nc4c(Cl)cccc4s3)cc2c1`, the figure is more than 5000 nM; as for `O=C(NCCc1ccc(Cl)cc1)c1cc2ccccc2cc1O`, more than 20000 nM; as for `O=C(NCc1ccc([N+](=O)[O-])cc1)c1cc2cccc(O)c2cc1O`, 1500 nM.
Same read-out and setting: as for `Nc1nc2c(ncn2COC(CO)CO)c(=O)[nH]1` [GANCICLOVIR], the figure is 600 nM.

The target in the next experiment is T1, DNA polymerase alpha catalytic subunit (Homo sapiens, UniProt P09884).
T1 sequence (P09884 whole entry): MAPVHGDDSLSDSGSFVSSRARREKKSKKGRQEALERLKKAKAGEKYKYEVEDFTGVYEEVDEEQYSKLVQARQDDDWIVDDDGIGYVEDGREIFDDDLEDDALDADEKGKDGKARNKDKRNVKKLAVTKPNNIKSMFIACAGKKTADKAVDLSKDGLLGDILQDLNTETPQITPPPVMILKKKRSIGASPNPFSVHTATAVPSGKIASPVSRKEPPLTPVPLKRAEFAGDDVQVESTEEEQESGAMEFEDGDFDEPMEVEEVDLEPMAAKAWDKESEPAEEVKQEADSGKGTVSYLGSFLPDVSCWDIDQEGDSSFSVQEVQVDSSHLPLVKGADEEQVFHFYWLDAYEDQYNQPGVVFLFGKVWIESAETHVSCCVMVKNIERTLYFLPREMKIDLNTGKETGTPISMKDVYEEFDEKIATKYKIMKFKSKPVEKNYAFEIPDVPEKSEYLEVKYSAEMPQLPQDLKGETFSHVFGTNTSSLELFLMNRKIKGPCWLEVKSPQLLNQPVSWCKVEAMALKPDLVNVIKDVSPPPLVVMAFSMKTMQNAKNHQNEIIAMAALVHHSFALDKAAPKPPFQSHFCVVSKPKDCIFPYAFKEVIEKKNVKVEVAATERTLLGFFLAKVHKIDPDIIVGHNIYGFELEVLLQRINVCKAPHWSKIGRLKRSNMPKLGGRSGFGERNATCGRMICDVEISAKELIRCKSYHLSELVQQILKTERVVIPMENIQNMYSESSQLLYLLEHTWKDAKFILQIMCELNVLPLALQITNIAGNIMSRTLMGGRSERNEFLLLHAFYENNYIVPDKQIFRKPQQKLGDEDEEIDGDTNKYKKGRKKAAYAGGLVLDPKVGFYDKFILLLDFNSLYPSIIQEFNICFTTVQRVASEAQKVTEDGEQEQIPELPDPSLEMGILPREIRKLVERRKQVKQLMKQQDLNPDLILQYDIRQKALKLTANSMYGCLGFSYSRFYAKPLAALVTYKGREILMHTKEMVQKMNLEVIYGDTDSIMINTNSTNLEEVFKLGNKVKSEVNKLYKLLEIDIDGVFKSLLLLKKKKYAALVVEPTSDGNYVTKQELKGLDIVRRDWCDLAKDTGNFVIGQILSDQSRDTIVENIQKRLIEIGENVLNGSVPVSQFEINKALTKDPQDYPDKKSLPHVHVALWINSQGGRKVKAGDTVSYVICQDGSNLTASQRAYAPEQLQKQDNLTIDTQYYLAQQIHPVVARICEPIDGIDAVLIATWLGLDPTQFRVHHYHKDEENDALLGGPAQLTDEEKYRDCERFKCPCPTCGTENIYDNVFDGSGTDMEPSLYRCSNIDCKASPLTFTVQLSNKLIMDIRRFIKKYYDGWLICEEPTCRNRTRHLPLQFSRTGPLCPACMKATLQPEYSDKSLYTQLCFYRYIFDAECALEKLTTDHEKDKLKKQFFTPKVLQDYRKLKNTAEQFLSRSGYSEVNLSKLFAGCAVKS
In words: Compound was evaluated for the inhibitory activity against Human alpha polymerase.
Details: not given
The molecule `O=C(Nc1cccc([N+](=O)[O-])c1)c1cc2ccccc2cc1O` came in with a half-maximal inhibitory concentration (IC50) of 32000 nM.
